In US20260007684A1, “AMIDE DERIVATIVES FOR INHIBITING NLRP3 AND USES THEREOF” (Ventus Therapeutics U.S., Inc., priority 2023, published 2026):

Each compound was assayed against human NLRP3 (Homo sapiens (Human), UniProt Q96P20) (assay: Scintillation Proximity (SPA) NLRP3 Assay: displacement of 3H-MCC950). Details: SPA IC50, displacement of 3H-MCC950.
Chain of human NLRP3 (Q96P20 whole entry): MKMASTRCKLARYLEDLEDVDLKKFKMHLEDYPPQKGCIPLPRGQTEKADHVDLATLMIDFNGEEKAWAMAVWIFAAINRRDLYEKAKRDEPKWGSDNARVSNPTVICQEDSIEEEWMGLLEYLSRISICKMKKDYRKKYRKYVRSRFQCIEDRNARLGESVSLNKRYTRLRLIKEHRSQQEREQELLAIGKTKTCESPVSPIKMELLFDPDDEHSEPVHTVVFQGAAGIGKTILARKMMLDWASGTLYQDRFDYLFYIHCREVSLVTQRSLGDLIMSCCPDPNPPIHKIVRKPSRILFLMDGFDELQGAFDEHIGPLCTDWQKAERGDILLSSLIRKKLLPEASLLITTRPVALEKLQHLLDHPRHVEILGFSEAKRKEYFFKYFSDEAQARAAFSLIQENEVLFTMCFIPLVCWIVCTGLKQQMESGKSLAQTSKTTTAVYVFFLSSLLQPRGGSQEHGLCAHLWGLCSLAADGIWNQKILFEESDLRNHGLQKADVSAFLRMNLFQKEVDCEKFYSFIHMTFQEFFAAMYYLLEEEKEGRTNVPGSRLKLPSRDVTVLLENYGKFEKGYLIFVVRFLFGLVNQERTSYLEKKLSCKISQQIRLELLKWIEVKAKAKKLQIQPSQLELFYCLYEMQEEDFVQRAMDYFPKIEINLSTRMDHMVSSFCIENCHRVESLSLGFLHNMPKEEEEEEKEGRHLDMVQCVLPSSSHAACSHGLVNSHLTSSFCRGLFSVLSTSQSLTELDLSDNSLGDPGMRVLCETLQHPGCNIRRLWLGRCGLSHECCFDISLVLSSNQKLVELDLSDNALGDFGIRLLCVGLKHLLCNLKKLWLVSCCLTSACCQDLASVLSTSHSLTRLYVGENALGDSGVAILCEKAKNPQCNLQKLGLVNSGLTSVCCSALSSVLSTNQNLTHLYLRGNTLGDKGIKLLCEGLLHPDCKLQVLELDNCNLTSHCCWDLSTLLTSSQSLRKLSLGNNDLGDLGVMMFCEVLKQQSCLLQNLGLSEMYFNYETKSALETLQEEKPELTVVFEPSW
Type: binding
`O=C(N[C@@H]1CCC[C@H]2CC[C@@H]1N2c1nnn[nH]1)C1(c2ccc(Cl)cc2)CC1` (single isomer, unassigned) [9C*, N-(9-(1H-tetrazol-5-yl)-9-azabicyclo[4.2.1]nonan-2-yl)-1-(4-chlorophenyl)cyclopropane-1-carboxamide] was tested, and the IC50 was over 100 µM. `O=C(N[C@@H]1CCC[C@@H]2CC[C@H]1N2c1nnn[nH]1)C1(c2ccc(Cl)cc2)CC1` (single isomer, unassigned) [9A*, N-(9-(1H-tetrazol-5-yl)-9-azabicyclo[4.2.1]nonan-2-yl)-1-(4-chlorophenyl)cyclopropane-1-carboxamide] gave an IC50 of 1 to 10 µM.

Same assay, conditions: displacement of 3H-MCC950; read-out: SPA IC50
Compound `C[C@H]1C[C@@H](NC(=O)C2(c3ccc(C(F)F)cc3)CC2)[C@@H]2CC[C@H]1N2c1nnn[nH]1` [86C*, 1-(4-(difluoromethyl)phenyl)-N-((1S,2R,4S,5R)-4-methyl-8-(1H-tetrazol-5-yl)-8-azabicyclo[3.2.1]octan-2-yl)cyclopropane-1-carboxamide] has an IC50 of over 100 µM. Compound `C[C@H]1CCN(c2nnn[nH]2)C[C@H](NC(=O)C2(c3ccc(Cl)cc3O)CC2)C1` (single isomer, unassigned) [60C*] has an IC50 of 1 to 10 µM. With `C[C@H]1CCN(c2nnn[nH]2)C[C@@H](NC(=O)C2(c3ccc(C4CC4)cc3)CC2)C1` (single isomer, unassigned) [2D*] the IC50 was 1 to 10 µM. `O=C(N[C@H]1CCC[C@@H]2CC[C@H]1N2c1nnn[nH]1)C1(c2ccc(C(F)(F)F)cc2O)CC1` [88B*, N-((1R,2S,6R)-9-(1H-tetrazol-5-yl)-9-azabicyclo[4.2.1]nonan-2-yl)-1-(2-hydroxy-4-(trifluoromethyl)phenyl)cyclopropane-1-carboxamide] was tested, and the IC50 was under 1 µM. For `Cc1ccc(C2(C(=O)N[C@H]3C[C@@H](C)CCN(c4nnn[nH]4)C3)CC2)c(O)c1F` (single isomer, unassigned) [22D*, 1-(3-fluoro-2-hydroxy-4-methylphenyl)-N-(5-methyl-1-(1H-tetrazol-5-yl)azepan-3-yl)cyclopropane-1-carboxamide], the IC50 was 1 to 10 µM. With `C[C@H]1C[C@H](NC(=O)C2(c3ccc(SC(F)F)cc3)CC2)[C@@H]2CC[C@H]1N2c1nnn[nH]1` [85D*, 1-(4-((difluoromethyl)thio)phenyl)-N-((1S,2S,4S,5R)-4-methy1-8-(1H-tetrazol-5-yl)-8-azabicyclo[3.2.1]octan-2-yl)cyclopropane-1-carboxamide] the IC50 was over 100 µM. Work on `C[C@]1(NC(=O)C2(c3ccc(Cl)cc3)CC2)CCCN(c2nnn[nH]2)C1` (single isomer, unassigned) [11B*, 1-(4-chlorophenyl)-N-(3-methyl-1-(1H-tetrazol-5-yl)piperidin-3-yl)cyclopropane-1-carboxamide] yielded an IC50 of over 100 µM. In the case of `C[C@@H]1CCN(c2nnn[nH]2)C[C@@H](NC(=O)C2(c3ccc(Cl)cc3)CC2)C1` (single isomer, unassigned) [12B*, 1-(4-chlorophenyl)-N-(5-methyl-1-(1H-tetrazol-5-yl)azepan-3-yl)cyclopropane-1-carboxamide], the IC50 is reported as 10 to 50 µM. For `C[C@@H]1CCN(c2nnn[nH]2)C[C@@H](NC(=O)C2(c3ccc(OC(F)F)cc3F)CC2)C1` (single isomer, unassigned) [3B*], the IC50 was 1 to 10 µM. For `C[C@H]1CC[C@@H](NC(=O)C2(c3ccc(C4CC4)cc3O)CC2)CN(c2nnn[nH]2)C1` (single isomer, unassigned) [91A*], the IC50 was under 1 µM. With `C[C@H]1CCN(c2nnn[nH]2)C[C@H](NC(=O)C2(c3ccc(OC(F)(F)F)cc3O)CC2)C1` (single isomer, unassigned) [62C*] the IC50 was 1 to 10 µM. With `C[C@H]1C[C@H](NC(=O)C2(c3ccc(C4CC4)cc3)CC2)[C@@H]2CC[C@H]1N2c1nnn[nH]1` [81D*] the IC50 was 10 to 50 µM. With `C[C@H]1CCN(c2nnn[nH]2)C[C@@H](NC(=O)C2(c3ccc(C4CC4)c(F)c3O)CC2)C1` (single isomer, unassigned) [32D*, 1-(4-cyclopropyl-3-fluoro-2-hydroxyphenyl)-N-(5-methyl-1-(1H-tetrazol-5-yl)azepan-3-yl)cyclopropane-1-carboxamide] the IC50 was 10 to 50 µM.
